Where two headings read alike, the source gives them in different places.
Columns and labels:
P. falciparum 3D7 = assay: [3H]-hypoxanthine growth inhibition, modified HCO3- or O2; assay type: cell-based; details: for IC50: Plasmodium falciparum
[1] = test system: P. falciparum 3D7 trophozoites; assay: Metabolomic fingerprint profiling LC-MS; assay type: cell-based, Plasmodium falciparum; design: UDP-D-glucose / ADP-D-glucose: unit not given here; details: for Acetyllysine / N-acetyl-L-ornithine / N-carbamoyl-L-aspartate / NADPH / dAMP / dCMP / dTDP / dTMP / dTTP / dihydroorotate / orotate / DLH / DLS/SDL/SID / PD / PEE / PVNF / 3-phosphoglycerate / ADP-D-glucose / ATP / CDP / D-sedoheptulose-1/7-phosphate / FAD / GMP / NAD+ / NADP+ / Octoluse Bisphosphate / Pyroglutamic acid / UDP-D-glucose / UDP-D-glucuronate / UDP-N-acetyl-glucosamine / UDP / UMP / UTP / a-ketoglutarate / citrate/isocitrate / cytidine / dATP / dGMP/AMP / fumarate / glucose-1/6-phosphate / glycerate / guanine / guanosine / hypoxanthine / indole / inosine / nicotinate / ornithine / phosphoenolpyruvate / pyruvate / ribose-phosphate / sarcosine/alanine / sn-glycerol-3-phosphate / succinate/methylmalonic acid / uridine / xanthosine: S2 Table Metabolomics; for Acetyllysine: metabolite Acetyllysine; for N-acetyl-L-ornithine: metabolite N-acetyl-L-ornithine; for N-carbamoyl-L-aspartate: metabolite N-carbamoyl-L-aspartate; for NADPH: metabolite NADPH; for dAMP: metabolite dAMP; for dCMP: metabolite dCMP; for dTDP: metabolite dTDP; for dTMP: metabolite dTMP; for dTTP: metabolite dTTP; for dihydroorotate: metabolite dihydroorotate; for orotate: metabolite orotate; for DLH: peptide DLH; for DLS/SDL/SID: peptide DLS/SDL/SID; for PD: peptide PD; for PEE: peptide PEE; for PVNF: peptide PVNF; for 3-phosphoglycerate: metabolite 3-phosphoglycerate; for ADP-D-glucose: metabolite ADP-D-glucose; for ATP: metabolite ATP; for CDP: metabolite CDP; for CDP / D-sedoheptulose-1/7-phosphate / GMP / Octoluse Bisphosphate / UDP / UMP / UTP / citrate/isocitrate / dGMP/AMP / fumarate / glucose-1/6-phosphate / glycerate / guanine / guanosine / inosine / pyruvate / sarcosine/alanine / succinate/methylmalonic acid / uridine / xanthosine: change in metabolite level after compound treatment; for D-sedoheptulose-1/7-phosphate: metabolite D-sedoheptulose-1/7-phosphate; for FAD: metabolite FAD; for GMP: metabolite GMP; for NAD+: metabolite NAD+; for NADP+: metabolite NADP+; for Octoluse Bisphosphate: metabolite Octoluse Bisphosphate; for Pyroglutamic acid: metabolite Pyroglutamic acid; for UDP-D-glucose: metabolite UDP-D-glucose; for UDP-D-glucuronate: metabolite UDP-D-glucuronate; for UDP-N-acetyl-glucosamine: metabolite UDP-N-acetyl-glucosamine; for UDP: metabolite UDP; for UMP: metabolite UMP; for UTP: metabolite UTP; for a-ketoglutarate: metabolite a-ketoglutarate; for citrate/isocitrate: metabolite citrate/isocitrate; for cytidine: metabolite cytidine; for dATP: metabolite dATP; for dGMP/AMP: metabolite dGMP/AMP; for fumarate: metabolite fumarate; for glucose-1/6-phosphate: metabolite glucose-1/6-phosphate; for glycerate: metabolite glycerate; for guanine: metabolite guanine; for guanosine: metabolite guanosine; for hypoxanthine: metabolite hypoxanthine; for indole: metabolite indole; for inosine: metabolite inosine; for 2_3-Diphosphoglyceric acid / 4-phosphopantothenate / 6-phospho-D-gluconate / FMN / IMP / Pyrophosphate / Sedoheptoluse bisphosphate / cyclic-AMP / glutathione disulfide / lactate / myo-inositol: metabolite level change after treatment; for nicotinate: metabolite nicotinate; for ornithine: metabolite ornithine; for phosphoenolpyruvate: metabolite phosphoenolpyruvate; for pyruvate: metabolite pyruvate; for ribose-phosphate: metabolite ribose-phosphate; for sarcosine/alanine: metabolite sarcosine/alanine; for sn-glycerol-3-phosphate: metabolite sn-glycerol-3-phosphate; for succinate/methylmalonic acid: metabolite succinate/methylmalonic acid; for uridine: metabolite uridine; for xanthosine: metabolite xanthosine
P. falciparum = assay: EC50 listed in S2 Table Metabolomics (used to set the concentration tested); assay type: cell-based; details: Plasmodium falciparum; EC50 used for Factor_XEC50 in metabolomics; read-out: EC50_nM
[2] = 3D7, read-out: P. falciparum 3D7 IC50 1% O2, 1% O2 hypoxia
[3] = 3D7, read-out: P. falciparum 3D7 IC50 5% O2

Compound: CN(C)CCCNc1c2ccccc2nc2ccccc12 [MMV000448]
- fold change (IC50normal/ IC50hypoxia) (P. falciparum 3D7): 6.1
- fold change (IC50reduced/IC50normal) (P. falciparum 3D7): 3.1
- IC50 (P. falciparum 3D7; [2]): 59 nM
- IC50 (P. falciparum 3D7; [3]): 360 nM
- IC50 (P. falciparum 3D7; 3D7, read-out: P. falciparum 3D7 IC50 HCO3- (2g/L), standard media): 190 nM
- IC50 (P. falciparum 3D7; 3D7, HCO3- reduced media, read-out: P. falciparum 3D7 IC50 HCO3- reduced): 594 nM
- Acetyllysine [1]: -0.6096
- N-acetyl-L-ornithine [1]: -0.1966
- N-carbamoyl-L-aspartate [1]: -0.218
- NADPH [1]: 1.387
- dAMP [1]: -0.07728
- dCMP [1]: 0.0599
- dTDP [1]: -0.2724
- dTMP [1]: -0.1401
- dTTP [1]: 0.115
- dihydroorotate [1]: -0.03007
- orotate [1]: -0.5122
- DLH [1]: -0.2186
- DLS/SDL/SID [1]: 0.06919
- PD [1]: 0.358
- PEE [1]: 0.9721
- PVNF [1]: 0.2725
- 3-phosphoglycerate [1]: -0.1099
- ADP-D-glucose [1]: 0.3085
- ATP [1]: -0.1913
- CDP [1]: 0.02837
- D-sedoheptulose-1/7-phosphate [1]: -0.03224
- FAD [1]: -0.02095
- GMP [1]: -0.2572
- NAD+ [1]: -0.1627
- NADP+ [1]: 0.3266
- Octoluse Bisphosphate [1]: -0.105
- Pyroglutamic acid [1]: -0.3472
- UDP-D-glucose [1]: -0.06298
- UDP-D-glucuronate [1]: -0.1533
- UDP-N-acetyl-glucosamine [1]: -0.07606
- UDP [1]: 0.1622
- UMP [1]: -0.1529
- UTP [1]: 0.06952
- a-ketoglutarate [1]: -0.5075
- citrate/isocitrate [1]: -0.2451
- cytidine [1]: -0.2174
- dATP [1]: 0.09204
- dGMP/AMP [1]: -0.1732
- fumarate [1]: 0.04552
- glucose-1/6-phosphate [1]: -0.4595
- glycerate [1]: -0.9564
- guanine [1]: 0.005054
- guanosine [1]: -0.4079
- hypoxanthine [1]: -0.5072
- indole [1]: -0.3067
- inosine [1]: -0.6058
- 2_3-Diphosphoglyceric acid [1]: 0.03945
- 4-phosphopantothenate [1]: -0.1337
- 6-phospho-D-gluconate [1]: 0.01561
- FMN [1]: -0.3847
- IMP [1]: -0.1057
- Pyrophosphate [1]: 0.1028
- Sedoheptoluse bisphosphate [1]: -0.05677
- cyclic-AMP [1]: -0.3139
- glutathione disulfide [1]: -0.02692
- lactate [1]: -0.5186
- myo-inositol [1]: -0.8275
- nicotinate [1]: -0.004192
- ornithine [1]: -0.09669
- phosphoenolpyruvate [1]: -0.129
- pyruvate [1]: -0.7877
- ribose-phosphate [1]: -0.2371
- sarcosine/alanine [1]: 0.03174
- sn-glycerol-3-phosphate [1]: -0.01243
- succinate/methylmalonic acid [1]: -0.2869
- uridine [1]: -0.8523
- xanthosine [1]: -0.9083
- EC50 (P. falciparum): 235 nM

Compound: CCCc1c(CC)c(=N)c2ccccc2n1C [MMV008416]
- fold change (IC50normal/ IC50hypoxia) (P. falciparum 3D7): 6.1
- IC50 (P. falciparum 3D7; [2]): 65 nM
- IC50 (P. falciparum 3D7; [3]): 397 nM
- Acetyllysine [1]: 0.2915
- N-acetyl-L-ornithine [1]: 0.3364
- N-carbamoyl-L-aspartate [1]: 0.3652
- NADPH [1]: 0.8856
- dAMP [1]: 0.5762
- dCMP [1]: 3.613
- dTDP [1]: 0.4591
- dTMP [1]: 0.9083
- dTTP [1]: 0.4804
- dihydroorotate [1]: 0.2294
- orotate [1]: -0.1417
- DLH [1]: -1.006
- DLS/SDL/SID [1]: 0.3509
- PD [1]: 0.4359
- PEE [1]: -0.9814
- PVNF [1]: 0.2215
- 3-phosphoglycerate [1]: -0.02776
- ADP-D-glucose [1]: 0.4196
- ATP [1]: 0.6896
- CDP [1]: 0.2951
- D-sedoheptulose-1/7-phosphate [1]: -0.3684
- FAD [1]: 0.5238
- GMP [1]: 0.02334
- NAD+ [1]: 0.4432
- NADP+ [1]: 0.7628
- Octoluse Bisphosphate [1]: 0.3902
- Pyroglutamic acid [1]: -0.3783
- UDP-D-glucose [1]: 0.135
- UDP-D-glucuronate [1]: -0.2053
- UDP-N-acetyl-glucosamine [1]: 0.4341
- UDP [1]: 0.7261
- UMP [1]: -0.1733
- UTP [1]: 0.4819
- a-ketoglutarate [1]: 0.04368
- citrate/isocitrate [1]: -1.579
- cytidine [1]: 0.4905
- dATP [1]: 0.253
- dGMP/AMP [1]: 0.3177
- fumarate [1]: -0.39
- glucose-1/6-phosphate [1]: 2.308
- glycerate [1]: 0.1238
- guanine [1]: 0.3854
- guanosine [1]: -0.8003
- hypoxanthine [1]: 0.09764
- indole [1]: 0.1467
- inosine [1]: -0.1012
- 2_3-Diphosphoglyceric acid [1]: 0.2083
- 4-phosphopantothenate [1]: 0.7504
- 6-phospho-D-gluconate [1]: 0.5606
- FMN [1]: 0.7862
- IMP [1]: 0.4308
- Pyrophosphate [1]: -0.6119
- Sedoheptoluse bisphosphate [1]: 0.3141
- cyclic-AMP [1]: 0.6453
- glutathione disulfide [1]: 0.5116
- lactate [1]: 1.188
- myo-inositol [1]: 2.818
- nicotinate [1]: -0.5574
- ornithine [1]: -0.1174
- phosphoenolpyruvate [1]: -0.4016
- pyruvate [1]: 0.4708
- ribose-phosphate [1]: 0.2759
- sarcosine/alanine [1]: 0.4883
- sn-glycerol-3-phosphate [1]: 0.06223
- succinate/methylmalonic acid [1]: -0.5916
- uridine [1]: 0.398
- xanthosine [1]: -0.8913
- EC50 (P. falciparum): 242 nM

Compound: CCC(c1ccccc1)c1nn2c(-c3cccs3)nnc2s1 (stereo not drawn) [MMV665876]
- fold change (IC50normal/ IC50hypoxia) (P. falciparum 3D7): 6.3
- IC50 (P. falciparum 3D7; [2]): 66 nM
- IC50 (P. falciparum 3D7; [3]): 415 nM
- Acetyllysine [1]: 0.283
- N-acetyl-L-ornithine [1]: 0.02574
- N-carbamoyl-L-aspartate [1]: 2.073
- NADPH [1]: -0.7617
- dAMP [1]: 0.5954
- dCMP [1]: -0.9145
- dTDP [1]: -1.527
- dTMP [1]: -1.62
- dTTP [1]: -1.561
- dihydroorotate [1]: 2.966
- orotate [1]: -1.924
- DLH [1]: -0.4979
- DLS/SDL/SID [1]: -0.4746
- PD [1]: 0.3937
- PEE [1]: -0.2764
- PVNF [1]: -2.041
- 3-phosphoglycerate [1]: -0.3031
- ADP-D-glucose [1]: -0.09411
- ATP [1]: -0.3796
- CDP [1]: -0.8385
- D-sedoheptulose-1/7-phosphate [1]: 0.09562
- FAD [1]: 0.1414
- GMP [1]: -0.3833
- NAD+ [1]: -0.3556
- NADP+ [1]: -0.2262
- Octoluse Bisphosphate [1]: -0.1952
- Pyroglutamic acid [1]: -0.02059
- UDP-D-glucose [1]: -0.01878
- UDP-D-glucuronate [1]: -0.4807
- UDP-N-acetyl-glucosamine [1]: -0.2752
- UDP [1]: -1.799
- UMP [1]: -3.164
- UTP [1]: -2.138
- a-ketoglutarate [1]: -0.08894
- citrate/isocitrate [1]: -0.02094
- cytidine [1]: 0.3021
- dATP [1]: 0.315
- dGMP/AMP [1]: 0.04047
- fumarate [1]: 0.2534
- glucose-1/6-phosphate [1]: -0.2061
- glycerate [1]: 0.1397
- guanine [1]: 0.4421
- guanosine [1]: 0.6466
- hypoxanthine [1]: -0.006623
- indole [1]: 0.04311
- inosine [1]: 0.2618
- 2_3-Diphosphoglyceric acid [1]: -0.3467
- 4-phosphopantothenate [1]: -0.1285
- 6-phospho-D-gluconate [1]: 0.112
- FMN [1]: -0.3509
- IMP [1]: 0.3458
- Pyrophosphate [1]: -0.3973
- Sedoheptoluse bisphosphate [1]: 0.1676
- cyclic-AMP [1]: -0.04329
- glutathione disulfide [1]: 0.137
- lactate [1]: -0.1203
- myo-inositol [1]: 0.267
- nicotinate [1]: 0.1101
- ornithine [1]: 0.02403
- phosphoenolpyruvate [1]: -0.2926
- pyruvate [1]: 0.1322
- ribose-phosphate [1]: -0.01159
- sarcosine/alanine [1]: 0.3044
- sn-glycerol-3-phosphate [1]: -0.401
- succinate/methylmalonic acid [1]: 0.1519
- uridine [1]: -0.6108
- xanthosine [1]: 0.3254
- EC50 (P. falciparum): 259 nM

From publication PMC4965013, “Open Source Drug Discovery with the Malaria Box Compound Collection for Neglected Diseases and Beyond” (PLoS Pathogens, 2016)
